Assay results reported in patent publication US8367873B2, “Phenyl-substituted bicyclooctane-1,3-dione derivatives” (Bayer Cropscience AG, priority 2008, dated 2013).

What was measured:
Format in all cases: in vivo
[1] = test system: Alopecurus myosuroides; test: Herbicidal post-emergence action; conditions: post-emergence method, 80 g/ha
Summary of the method: (§1)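 Percent herbicidal effect (0% like control, 100% plants dead) was rated by eye roughly three weeks post-treatment. Treatment was a post-emergence spray of wettable-powder formulations at different doses, 600 l/ha water with 0.2% wetter, onto one-leaf-stage weeds and crops grown in greenhouse pots.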

[2] = test system: Lolium multiflorum; test: Herbicidal post-emergence action; conditions: post-emergence method, 80 g/ha
Summary of the method: as §1

[3] = test system: Setaria viridis; test: Herbicidal post-emergence action; conditions: post-emergence method, 80 g/ha
Summary of the method: as §1

[4] = test system: Echinocloa crus-galli; test: Herbicidal post-emergence action; conditions: post-emergence method, 80 g/ha
Summary of the method: as §1

[5] = test system: monocotylidonous and dicotylidonous weed and crop plants; test: Herbicidal pre-emergence action (other test plants); conditions: pre-emergence method, 80 g/ha, greenhouse, visual assessment vs untreated controls
Summary of the method: (§2)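 Visual percent effect relative to untreated controls (0% = like control, 100% = dead) assessed three weeks after treatment in the greenhouse. Compounds, as wettable powders in water (600 l/ha, 0.2% wetting agent), were sprayed at different amounts onto covering soil over seeds sown in sandy loam.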

[6] = test system: monocotylidonous and dicotylidonous weed and crop plants; test: Herbicidal post-emergence action (other test plants); conditions: post-emergence method, 80 g/ha
Summary of the method: as §1

[7] = test system: Alopecurus myosuroides; test: Herbicidal pre-emergence action; conditions: pre-emergence method, 80 g/ha, greenhouse, visual assessment vs untreated controls
Summary of the method: as §2

[8] = test system: Lolium multiflorum; test: Herbicidal pre-emergence action; conditions: pre-emergence method, 80 g/ha, greenhouse, visual assessment vs untreated controls
Summary of the method: as §2

[9] = test system: Setaria viridis; test: Herbicidal pre-emergence action; conditions: pre-emergence method, 80 g/ha, greenhouse, visual assessment vs untreated controls
Summary of the method: as §2

[10] = test system: Echinocloa crus-galli; test: Herbicidal pre-emergence action; conditions: pre-emergence method, 80 g/ha, greenhouse, visual assessment vs untreated controls
Summary of the method: as §2

Row | Structure (SMILES) | herbicidal effect against ALOMY (Alopecurus myosuroides) [1] [%] | herbicidal effect against LOLMU (Lolium multiflorum) [2] [%] | herbicidal effect against SETVI (Setaria viridis) [3] [%] | herbicidal effect against ECHCG (Echinochloa crus-galli) [4] [%] | herbicidal effect AVEFA [5] [%] | herbicidal effect against AVEFA (Avena fatua) [6] [%] | herbicidal effect ALOMY [7] [%] | herbicidal effect LOLMU [8] [%] | herbicidal effect SETVI [9] [%] | herbicidal effect ECHCG [10] [%]
1 | CCc1cc(C)cc(CC)c1C1=C(OC(=O)OC)C2CC3(CC2C1=O)OCC=CCO3 (stereo not drawn) [I-c-21] | 90 | 100 | 100 | 100 | 70 | 100 | 90 | 100 | 100 | 100
2 | CCOC(=O)OC1=C(c2c(CC)cc(C)cc2CC)C(=O)C2CC3(CC12)OCC(C)(C)CO3 (stereo not drawn) [I-c-22] | 100 | 100 | 100 | 100 | 70 | 100 | 100 | 100 | 100 | 100
3 | CCc1cc(C)cc(CC)c1C1=C(OC(=O)OC)C2CC3(CC2C1=O)OCC(C)(C)CO3 (stereo not drawn) [I-c-23] | 100 | 100 | 100 | 100 | 70 | 100 | 100 | 100 | 100 | 100
4 | CCOC(=O)OC1=C(c2c(CC)cc(C)cc2CC)C(=O)C2CC3(CC12)OCC(OC)CO3 (stereo not drawn) [I-c-25] | 100 | 100 | 100 | 100 | 90 | 100 | 100 | 100 | 80 | 100
5 | CCOC(=O)OC1=C(c2c(CC)cc(C)cc2CC)C(=O)C2CC3(CC12)OCC(OCC)CO3 (stereo not drawn) [I-c-26] | 100 | 100 | 100 | 100 | 80 | 100 | 100 | 100 | 100 | 100
6 | CCOC1COC2(CC3C(=O)C(c4c(CC)cc(C)cc4CC)=C(OC(=O)OC)C3C2)OC1 (stereo not drawn) [I-c-27] | 100 | 100 | 100 | 100 | 80 | 100 | 100 | 100 | 90 | 100
7 | CCc1cc(C)cc(CC)c1C1=C(OC(=O)OC(C)C)C2CC3(CC2C1=O)OCCCO3 (stereo not drawn) [I-c-34] | 100 | 100 | 90 | 100 | 60 | 100 | 90 | 100 | 80 | 100
8 | CCOC(=O)OC1=C(c2c(CC)cc(C)cc2CC)C(=O)C2CC(=NOCC3CC3)CC12 (stereo not drawn) [I-c-40] | 100 | 100 | 100 | 100 | 60 | 0 | 80 | 80 | 40 | 0
9 | C#CCON=C1CC2C(=O)C(c3c(CC)cc(C)cc3CC)=C(OC(=O)OCC)C2C1 (stereo not drawn) [I-c-41] | 100 | 100 | 20 | 100 | 40 | 80 | 90 | 100 | 40 | 60
10 | C#CC(C)ON=C1CC2C(=O)C(c3c(CC)cc(C)cc3CC)=C(OC(=O)OCC)C2C1 (stereo not drawn) [I-c-43] | 100 | 100 | 0 | 100 | 40 | 0 | 80 | 80 | 0 | 80
11 | CCOC(=O)OC1=C(c2c(C)cc(C)cc2C)C(=O)C2CC3(CC12)OCCO3 (stereo not drawn) [I-c-44] | 40 | 100 | 90 | 100 | 50 | 80 | 50 | 100 | 0 | 0
12 | CCc1cc(C)cc(CC)c1C1=C([O-])C2CC3(CC2C1=O)OC(C)CC(C)O3.[Na+] (stereo not drawn) [I-f-2] | 80 | 100 | 90 | 100 | 50 | 90 | 90 | 100 | 60 | 90
13 | COc1cc(C)cc(C)c1C1=C([O-])C2CC3(CC2C1=O)OCCCO3.[Na+] (stereo not drawn) [I-f-4] | 100 | 100 | 100 | 100 | 50 | 90 | 0 | 100 | 50 | 90
14 | COc1cc(C)cc(C)c1C1=C([O-])C2CC3(CC2C1=O)OCCCCO3.[Na+] (stereo not drawn) [I-f-5] | 100 | 100 | 100 | 100 | 70 | 100 | 90 | 90 | 90 | 70
15 | COc1cc(C)cc(C)c1C1=C([O-])C2CC3(CC2C1=O)OCCO3.[Na+] (stereo not drawn) [I-f-6] | 100 | 100 | 100 | 100 | 90 | 80 | 60 | 90 | 70 | 70
16 | COc1cc(C)cc(C)c1C1=C([O-])C2CC3(CC2C1=O)OCC=CCO3.[Na+] (stereo not drawn) [I-f-7] | 100 | 100 | 100 | 100 | 70 | 100 | 100 | 100 | 90 | 80
17 | Cc1cc(C)c(C2=C([O-])C3CC4(CC3C2=O)OCC=CCO4)c(C)c1.[Na+] (stereo not drawn) [I-f-8] | 100 | 100 | 100 | 100 | 40 | 90 | 30 | 100 | 70 | 0
18 | Cc1cc(C)c(C2=C([O-])C3CC4(CC3C2=O)OCC(C)CO4)c(C)c1.[Na+] (stereo not drawn) [I-f-9] | 80 | 100 | 100 | 80 | 50 | 90 | 30 | 100 | 50 | 60
